Laboratory results published in patent publication US6146616A, “Antioxidant and/or antielastase composition based on lupine oil” (priority 1997, dated 2000).

What was measured:
plasmid DNA (pBS) = assay: 3-D test: protection of adsorbed plasmid DNA against singlet oxygen generated by illuminated methylene blue; format: biochemical; settings: for % Specific inhibition: methylene blue + light; for % Aspecific inhibition: on predamaged plasmid pBS^UV, absence of ROS
Source text: The test used is a biological system of detecting damage (3-D test) on DNA captured on a microplate (Analytical Biochemistry, 1995, 232, 37-42). The damage is recognized by the repair enzymes and repaired by purified cellular extracts. The repair of the lesions involves a phase for excision and then resynthesis of the damaged and excised DNA fragment. During the reparative synthesis stage, one or more modified nucleotides (digoxigenylated dUTP or DIG-11-dUTP) are incorporated into the DNA. These nucleotides are then recognized by anti-DIG antibodies coupled to alkaline phosphatase. An alkaline phosphatase substrate (Lumi-Phos 530) is then added and the luminescent signal emitted is measured by a luminometer (Lumax 2, marketed by the company S.F.R.I.). The intensity of the signal obtained depends on the different parameters (extracts, salt concentration, quantity of DNA, reaction time and the like) including that relating to the number of lesions repaired, and therefore of lesions present on the DNA. A dose-response relationship is observed within the limit of 1 to 15 lesions per 6 kilobases for most of the lesions.
This system is capable of repairing any type of lesion since all the enzymes for repairing DNA lesions are present and active in the extracts. The oxidative damage is therefore recognized in this system.
The damage is caused by reactive oxygen species (ROS) by means of a system which induces the formation of lesions on the DNA adsorbed in a well, leading to the reading of a reparative synthesis signal. In the presence of a compound or of a mixture of compounds which make it possible to protect DNA as a result, for example, of antioxidant or anti-free radical properties, a decrease or even an elimination of the repair signal, a reflection of the quantity of lesions, is observed.
ROS ^1 O2, a powerful electrophile which has a very short life, is generated by illumination of methylene blue. It therefore reacts very rapidly with the bases in the DNA and produces various types of damage such as modification of bases or loss of bases, which are very genotoxic.
Ultrapurified plasmid DNA (pBS) (predominantly supercoiled form) is placed in contact with the wells sensitized by poly-lysine for 30 minutes at 30° C., with gentle shaking, at a concentration of 1 μg/ml in a volume of 50 μl. Under these conditions, the adsorption of the DNA is quantitative (about 40 ng per well).
A positive control for repair, consisting of a plasmid predamaged by UV-C (called pBS^UV), is added.
After incubation, the wells are washed twice with a solution of PBS supplemented with 0.1% Tween 20.
A stock solution of methylene blue at 10 μg/ml is diluted to a concentration of 4 ng/ml in ultrapure water (MilliQ quality from Millipore).
This solution is mixed in an equal volume with various dilutions of the samples, and 50 μl of the mixture (at 2 ng/ml of methylene blue) are added to the wells containing the adsorbed plasmid DNA. The wells are placed on ice and illuminated for 20 minutes with 2 lamps of 100 W, 30 cm apart.
The four samples were tested at 3 dilutions.
The dilutions were made 2X, in propylene glycol, in order to obtain the desired dilutions after addition of a volume of methylene blue solution of 4 ng/ml.
In order to check that the decrease in the repair signal is not aspecific, the same dilutions (IX) are incubated under the same conditions on pBS^UV. […] An inhibition of the control repair signal for pBS^UV can, for example, be explained by a direct interaction of the sample with the DNA which blocks access of the lesions to the repair enzymes.
These different dilutions were incubated on the nondamaged DNA (pBS) and illuminated in the absence of methylene blue. This test makes it possible to check that the product tested is not genotoxic.
They are expressed as the percentage residual repair inhibition. The 0% value corresponds to the repair signal under the condition of methylene blue treatment alone. […]

pancreatic elastase = molecular target: T1, pancreatic elastase (Sus scrofa, UniProt P00772); assay: Antielastase activity in sections of human skin explant (intact elastic fibers, image analysis); format: biochemical; settings: for % Inhibition of the elastase activity: elastase 5 IU/ml, 3 hours, 37° C.; for Inhibition (of elastase, graded 0 to +++): Table 8
T1 construct: purchased Sigma E0258
Source text: The study of the antielastase activity represents a good indication of skin aging since it is now well known that the degradation of the elastic fibers present in the dermis involves endogenous elastases. The test used makes it possible to study the antielastase activity in vitro in sections of human skin explant. An application of purified elastase on a limited portion of the section is accompanied by degradation of the endogenous elastic fibers. The elastic fibers are stained with (+)-catechin. The percentage of intact elastic fibers per optical field is evaluated by image analysis. A product having antielastase activity makes it possible to preserve the integrity of the elastic fibers in the presence of purified elastase.
A pancreatic elastase (type IV, reference E0258, Sigma) is used. The medium for incubation of the human skin sections ("vehicle") is 0.1 M Herpes buffer, adjusted to pH 7.5 with sodium hydroxide containing 0.1 M sodium chloride.
The skin sections are produced from surgical waste collected after abdominal plastic surgery. The donor was a person. Explants of 1 cm in diameter are produced and they are deposited on a cork support and they are frozen at -80° C. Transverse sections 6 µm thick are produced with a cryomicrotome. The sections are fixed on glass slides and maintained hydrated with the vehicle during the test.
The test products are tested at 0.5; 1 and 5% (v/v) in the vehicle.
The elastatinal is tested at 0.01 and 0.1% (w/v) in the vehicle.
The mercuric chloride is tested at 0.025 and 0.125% (w/v) in the vehicle.
The dilutions of the test products and of the reference products are deposited on the skin sections in an amount of 100 μl per section (0.32 cm^2 in surface area), and preincubated for ten minutes at 37° C. Filter paper strips (0.16 cm^2 in surface area) impregnated with the vehicle alone (control vehicle) or containing pancreatic elastase at 5 international units (IU)/ml (control enzyme) are deposited on the sections. The slides are placed in a humid chamber at 37° C. for three hours.
After incubation, the sections are rinsed with the incubation medium and stained with (+)-catechin. The activity of the enzyme in the absence and in the presence of the test products or of the reference products is evaluated by image analysis: the image of the stained sections is digitized on a video screen; a software for image analysis makes it possible to measure the amounts of gray in the binary images; the surface area occupied by the intact elastic fibers is measured. The results are expressed as percentage of intact elastic fibers per optical field.
The percentage inhibition of the elastase activity of the test products and of the reference products is calculated with the aid of the following formula: [formula]
The antielastase activity is determined under the conditions indicated in IV above.

[1] = system: human epidermal keratinocytes; assay: Anti-free radical activity: hydroperoxides by fluorometry in UVA-irradiated keratinocytes; format: cell-based; settings: Keratinocyte, light or radiation study, 1.5 h, 0.1% (w/v), UVA 90 minutes (10 J/cm^2), read-out: % protection
Source text: The cells are human epidermal keratinocytes. […] The cells are used at the sixth passage, they are inoculated at 1×10^5 cells per well into 6-well culture plates. They are used at confluence.
It is quantified by a fluorometric method which detects the quantity of hydroperoxides which are metabolites of free radicals. An appropriate probe which converts to a fluorescent derivative in their presence is used, according to the method described by Keston A. S. and Brandt R. (The fluorometric analysis of ultramicro quantities of hydrogen peroxide, Anal. Biochem. 11, 1965, 1-5).
The free radicals are generated at the cell culture level by irradiation with ultraviolet A rays. […]
After irradiation, the keratinocytes are lyzed by the action of ultrasound. The cellular lysates are transferred into 96-well plates and analyzed by fluorimetry with the aid of a plate analyzer (excitation: 355 nm, emission: 460 nm).
The results are expressed in fluorescence unit/culture well.
The percentage protection of the test products or of the reference products R1 and R2 was calculated with the aid of the following formula: [formula]
By convention, when the values measured in the presence of the test products or in the presence of the reference products were less than those of the "non-irradiated control", the percentage protection was expressed as 100%.

T1 sequence (P00772 27-266): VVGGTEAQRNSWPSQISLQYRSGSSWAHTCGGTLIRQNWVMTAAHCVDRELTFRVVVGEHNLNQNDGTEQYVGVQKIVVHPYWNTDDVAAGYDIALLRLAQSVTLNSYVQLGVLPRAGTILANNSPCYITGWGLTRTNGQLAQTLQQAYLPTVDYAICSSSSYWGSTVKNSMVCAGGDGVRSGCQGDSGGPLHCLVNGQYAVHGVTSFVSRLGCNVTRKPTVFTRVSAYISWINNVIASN

| Compound | % Specific inhibition (plasmid DNA (pBS); 0.01%) | % Aspecific inhibition (plasmid DNA (pBS); 0.01%) | protective properties on DNA towards singlet oxygen (in words) (plasmid DNA (pBS); 0.01 to 1%) | % Specific inhibition (plasmid DNA (pBS); 0.1%) | % Aspecific inhibition (plasmid DNA (pBS); 0.1%) | % Specific inhibition (plasmid DNA (pBS); 1%) | % Aspecific inhibition (plasmid DNA (pBS); 1%) | other results |
| --- | --- | --- | --- | --- | --- | --- | --- | --- |
| CC(O)CO (centres unmarked) [Propylene glycol, propylene glycol] | 0% | 2% | only very weak protective properties | 6% | 6% | 13% | 7% |  |
| CC(C)C[C@H](NC(=O)N[C@H](C(=O)N[C@@H](CCC(N)=O)C(=O)N[C@@H](C)C=O)[C@@H]1CCNC(=N)N1)C(=O)O [Elastatinal, elastatinal] |  |  |  |  |  |  |  | % Inhibition of the elastase activity (pancreatic elastase; 0.01% (w/v)): 71.5%; % Inhibition of the elastase activity (pancreatic elastase; 0.01% (w/v), listed as elastatinal): 71%; % Inhibition of the elastase activity (pancreatic elastase; 0.1% (w/v)): 59.9%; % Inhibition of the elastase activity (pancreatic elastase; 0.1% (w/v), listed as elastatinal): 60%; Inhibition (of elastase, graded 0 to +++) (pancreatic elastase; 0.1% (w/v)): strongly inhibits |
| [Cl][Hg][Cl] [Mercuric chloride, mercuric chloride] |  |  |  |  |  |  |  | % Inhibition of the elastase activity (pancreatic elastase; 0.025% (w/v)): 18.4%; % Inhibition of the elastase activity (pancreatic elastase; 0.025% (w/v), listed as mercuric chloride): 18%; % Inhibition of the elastase activity (pancreatic elastase; 0.125% (w/v)): 39.3%; % Inhibition of the elastase activity (pancreatic elastase; 0.125% (w/v), listed as mercuric chloride): 39%; Inhibition (of elastase, graded 0 to +++) (pancreatic elastase; 0.125% (w/v)): strongly inhibits |
| CC(=O)Oc1c(C)c(C)c2c(c1C)CCC(C)(CCCC(C)CCCC(C)CCCC(C)C)O2 (centres unmarked) [Vitamin E acetate, vitamin E acetate] |  |  |  |  |  |  |  | inhibition at 0.1 % [1]: 65% |
| CC1=C(/C=C/C(C)=C/C=C/C(C)=C/C=C/C=C(C)/C=C/C=C(C)/C=C/C2=C(C)CCCC2(C)C)C(C)(C)CCC1 [Control, β-carotene] | 45% | 0% | does not exhibit a dose-effect | 53% | +2% | 45% | 0% | aspecific effect / aspecificity (in words) (plasmid DNA (pBS); 0.01 to 1%): does not show, on the other hand, aspecificity |
